pIC50: −log10 of the molar value.
Legend:
aminopeptidase M = molecular target: T1, aminopeptidase M (Sus scrofa, UniProt P15145); experiment: Inhibition of aminopeptidase M (L-leucine-β-naphthylamide substrate); assay type: biochemical; settings: read-out: Value of IC50 against Aminopeptidase M (converted)
T1 construct: purchased Boehringer Mannheim Company
T1 sequence (P15145 1-963): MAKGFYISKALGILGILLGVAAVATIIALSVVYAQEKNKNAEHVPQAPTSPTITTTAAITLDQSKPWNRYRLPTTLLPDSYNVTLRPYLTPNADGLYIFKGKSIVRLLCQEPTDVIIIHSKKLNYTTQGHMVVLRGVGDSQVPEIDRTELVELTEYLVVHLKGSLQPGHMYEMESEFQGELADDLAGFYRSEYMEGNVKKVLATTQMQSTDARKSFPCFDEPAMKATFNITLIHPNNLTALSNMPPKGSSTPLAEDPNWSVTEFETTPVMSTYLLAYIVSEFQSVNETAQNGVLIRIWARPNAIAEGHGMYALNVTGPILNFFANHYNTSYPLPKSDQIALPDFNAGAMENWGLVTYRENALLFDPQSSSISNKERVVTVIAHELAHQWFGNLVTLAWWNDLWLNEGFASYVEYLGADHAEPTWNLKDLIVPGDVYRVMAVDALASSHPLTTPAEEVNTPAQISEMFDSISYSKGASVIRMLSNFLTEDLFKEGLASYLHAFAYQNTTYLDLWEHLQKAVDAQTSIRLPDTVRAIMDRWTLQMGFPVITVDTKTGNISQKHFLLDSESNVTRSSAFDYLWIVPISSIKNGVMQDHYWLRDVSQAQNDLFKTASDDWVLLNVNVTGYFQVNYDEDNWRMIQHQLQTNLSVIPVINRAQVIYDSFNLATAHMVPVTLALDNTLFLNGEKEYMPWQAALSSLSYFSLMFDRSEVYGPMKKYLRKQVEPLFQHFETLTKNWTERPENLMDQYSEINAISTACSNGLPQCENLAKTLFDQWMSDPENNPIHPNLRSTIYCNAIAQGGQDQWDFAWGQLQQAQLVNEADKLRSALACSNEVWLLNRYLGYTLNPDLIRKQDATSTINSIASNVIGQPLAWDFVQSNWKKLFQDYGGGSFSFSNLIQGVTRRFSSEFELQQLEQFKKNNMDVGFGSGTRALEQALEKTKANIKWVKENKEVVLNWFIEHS
Description: The mixture solution obtained is heated at 37° C. for 3 minutes. To the heated solution is added 0.05 ml of an aqueous solution of aminopeptidase M (a product of Boehringer Mannheim Company; 4 units/mg). The resulting mixture is incubated for 30 minutes at 37° C. for the enzymatic reaction and the resultant reaction mixture is admixed with 1 ml of 1.0 M acetate buffered solution (pH 4.2) containing 10% of a surfectant "Tween" 20 and 0.1% of Fast Garnet GBC (0-aminoazotoluene, diazonium salt) to stop the enzymatic reaction. After allowing the resulting mixture to stand at ambient temperature for 15 minutes, the absorbance of light at 525 nm of the resultant reaction solution is measured, with designating the measured value as value (a). […] The rate (%) of inhibition to the aminopeptidase M is calculated from an equation [(b-a)/b]×100.

Aminopeptidase-A = Aminopeptidase-A (Homo sapiens, UniProt Q07075); experiment: Inhibition of aminopeptidase-A
Leucine-aminopeptidase = Leucine-aminopeptidase (Homo sapiens, UniProt P28838); experiment: Inhibition of leucine-aminopeptidase
[1] = system: antibody-forming cells in spleen; experiment: Humoral antibody formation: plaque-forming cells in spleen of SRBC-immunized mice (Jerne's hemolytic plaque technique); assay type: in vivo, CDF-mice; settings: for Number of PFC: counted 4 days after SRBC immunization; for T/C (%): PFC number versus control
Description: CDF-mice were immunized by intravenous injection of 10^8 sheep red blood cells (SRBC). 1000 μg/mouse, 250 μg/mouse or 62.5 μg/mouse of probestin was administered by intraperitoneal injection into the mice at the time of the immunization with SRBC (0 hour) and then totally three times, namely 24, 48 and 72 hours after the immunization. Four days after the immunization with SRBC, the number of the plaque-forming cell (PFC) (namely, the antibody-forming cells) in spleen was enumerated by the known Jerne's hemolytic plaque technique [Jerne, N.K; A. A. Nordin & C. Henry; "The agar plaque technique for recognizing antibody-producing cells in cell-bound antibodies" pp. 109-122 published by Wister Institute press, Philadelphia (1963)].

mice = experiment: Acute toxicity by intravenous injection in mice; assay type: in vivo
Solubility in solvents = assay type: physicochemical; settings: water and organic solvents
Aminopeptidase-B = Aminopeptidase-B (Homo sapiens, UniProt Q9H4A4); experiment: Inhibition of aminopeptidase-B
Aminopeptidase-B, sequence (Q9H4A4 whole entry): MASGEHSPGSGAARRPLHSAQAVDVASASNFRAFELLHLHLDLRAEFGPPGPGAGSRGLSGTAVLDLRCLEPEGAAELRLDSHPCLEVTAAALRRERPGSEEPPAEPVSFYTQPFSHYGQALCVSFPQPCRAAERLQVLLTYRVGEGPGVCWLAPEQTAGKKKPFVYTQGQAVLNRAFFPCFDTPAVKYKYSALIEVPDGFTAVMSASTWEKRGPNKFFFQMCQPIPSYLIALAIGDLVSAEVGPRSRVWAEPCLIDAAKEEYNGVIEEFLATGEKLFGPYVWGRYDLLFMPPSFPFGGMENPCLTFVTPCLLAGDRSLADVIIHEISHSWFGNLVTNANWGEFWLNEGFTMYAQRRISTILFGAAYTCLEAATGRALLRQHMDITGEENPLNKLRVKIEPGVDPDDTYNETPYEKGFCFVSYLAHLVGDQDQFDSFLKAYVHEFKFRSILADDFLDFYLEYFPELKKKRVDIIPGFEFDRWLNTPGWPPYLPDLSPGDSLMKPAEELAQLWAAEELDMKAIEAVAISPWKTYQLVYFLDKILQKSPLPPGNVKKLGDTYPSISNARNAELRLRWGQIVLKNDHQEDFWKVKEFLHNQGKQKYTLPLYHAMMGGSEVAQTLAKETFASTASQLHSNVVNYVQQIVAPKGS

Aminopeptidase-A, sequence (Q07075 whole entry): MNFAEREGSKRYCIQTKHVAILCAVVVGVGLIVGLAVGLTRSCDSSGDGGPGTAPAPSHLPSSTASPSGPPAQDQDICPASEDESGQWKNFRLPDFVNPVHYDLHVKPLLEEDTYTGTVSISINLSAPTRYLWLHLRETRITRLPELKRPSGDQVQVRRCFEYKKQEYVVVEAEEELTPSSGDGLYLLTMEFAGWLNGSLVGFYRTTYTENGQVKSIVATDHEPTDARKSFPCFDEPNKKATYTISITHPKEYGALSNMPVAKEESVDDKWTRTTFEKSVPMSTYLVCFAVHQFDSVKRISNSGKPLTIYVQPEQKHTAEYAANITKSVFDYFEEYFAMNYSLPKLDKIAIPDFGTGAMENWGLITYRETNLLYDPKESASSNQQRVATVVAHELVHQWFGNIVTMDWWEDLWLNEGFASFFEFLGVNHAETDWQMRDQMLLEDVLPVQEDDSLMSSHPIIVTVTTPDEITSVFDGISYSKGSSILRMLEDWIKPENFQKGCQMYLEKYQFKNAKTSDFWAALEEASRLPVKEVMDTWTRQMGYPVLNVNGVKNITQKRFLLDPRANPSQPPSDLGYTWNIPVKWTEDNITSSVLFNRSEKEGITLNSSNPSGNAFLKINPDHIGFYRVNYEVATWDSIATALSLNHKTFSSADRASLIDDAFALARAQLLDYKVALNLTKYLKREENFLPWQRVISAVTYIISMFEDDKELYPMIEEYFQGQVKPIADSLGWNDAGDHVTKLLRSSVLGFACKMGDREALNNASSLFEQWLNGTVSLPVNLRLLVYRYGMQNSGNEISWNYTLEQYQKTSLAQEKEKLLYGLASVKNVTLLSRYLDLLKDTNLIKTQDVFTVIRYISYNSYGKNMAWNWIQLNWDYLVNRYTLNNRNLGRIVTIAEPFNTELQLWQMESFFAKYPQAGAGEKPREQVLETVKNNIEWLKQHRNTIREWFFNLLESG
Leucine-aminopeptidase, sequence (P28838 whole entry): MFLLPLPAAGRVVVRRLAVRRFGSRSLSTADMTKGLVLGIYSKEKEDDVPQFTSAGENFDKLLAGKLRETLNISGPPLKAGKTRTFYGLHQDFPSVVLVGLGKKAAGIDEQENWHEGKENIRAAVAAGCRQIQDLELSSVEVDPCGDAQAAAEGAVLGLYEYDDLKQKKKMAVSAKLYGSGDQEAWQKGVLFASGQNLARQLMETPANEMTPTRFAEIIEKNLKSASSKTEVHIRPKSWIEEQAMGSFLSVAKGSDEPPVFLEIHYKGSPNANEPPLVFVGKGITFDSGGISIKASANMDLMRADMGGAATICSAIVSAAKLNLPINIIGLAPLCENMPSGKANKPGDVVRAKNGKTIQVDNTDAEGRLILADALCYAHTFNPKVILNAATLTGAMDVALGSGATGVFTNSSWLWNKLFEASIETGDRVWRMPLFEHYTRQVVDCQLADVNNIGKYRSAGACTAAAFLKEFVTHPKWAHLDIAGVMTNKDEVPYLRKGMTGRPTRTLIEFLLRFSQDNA

Row | IC50 (aminopeptidase M) [nM] | pIC50 (Aminopeptidase-A) | pIC50 (Leucine-aminopeptidase) | SMILES | Number of PFC ([1]; 62.5 μg/mouse ip. at 0, 24, 48, 72 h) | T/C (%) ([1]; 62.5 μg/mouse ip.) | Number of PFC ([1]; 250 μg/mouse ip. at 0, 24, 48, 72 h) | T/C (%) ([1]; 250 μg/mouse ip.) | Number of PFC ([1]; 1000 μg/mouse ip. at 0, 24, 48, 72 h) | T/C (%) ([1]; 1000 μg/mouse ip.) | Effect on number of antibody-forming cells in spleen (in words) ([1]; intraperitoneal injection, SRBC-immunized mice, probestin 1000 μg to 62.5 μg/mouse) | LD50 (mice) | Solubility (Solubility in solvents) | Value of IC50 against Aminopeptidase-A (Aminopeptidase-A) [µg/mL] | Value of IC50 against Aminopeptidase-B (Aminopeptidase-B) [µg/mL] | Value of IC50 against Leucine-aminopeptidase (Leucine-aminopeptidase) [µg/mL]
1 | 1040 | < 3.59 | 5.59 | CCCCC[C@H](CC(=O)NO)C(=O)N[C@H](C(=O)N1CCC[C@H]1CO)C(C)C [Actinonin, actinonin, reference compound] |  |  |  |  |  |  |  |  |  |  |  | 
2 |  |  |  | CC(C)C[C@H](NC(=O)[C@@H](O)[C@H](N)Cc1ccccc1)C(=O)N1CCC[C@H]1C(=O)N1CCC[C@H]1C(=O)O [Probestin] | 492.540 ± 69.980 × 10^3 /spleen | 212.1 | 631.680 ± 69.560 × 10^3 /spleen | 271.8 | 891.900 ± 162.610 × 10^3 /spleen | 384.1 | increased number of the antibody-forming cells in the spleen | greater than 250 mg/kg | Readily soluble in water, methanol and dimethyl-sulfoxide, but insoluble in acetone, ethyl acetate, chloroform and hexane | > 100 | 36.7 | 0.091

— patent publication US5021549A, “Physiologically active substances, probestin and prostatin and production thereof” (priority 1987, dated 1991)
